For one compound, IC50 results are on record in patent publication US7495015B2, “Indazole derivatives and methods for using the same” (Roche Palo Alto LLC, priority 2004, dated 2009).

For the test, the target named is T1, p38 MAP kinase (Homo sapiens, UniProt Q16539).
T1 construct: made in house; host or cells: E. coli (co-expressed with SEK-1 and MEKK to obtain the phosphorylated form)
The experiment in a line: p38 (MAP) kinase in vitro assay (transfer of γ-phosphate from γ-33P-ATP to Myelin Basic Protein). Type of test: biochemical. The conditions noted are these: phosphorylated recombinant p38 MAP kinase, MBP substrate, 30° C. The method, then: This example illustrates a p38 (MAP) kinase in vitro assay useful for evaluating the compounds of the invention.
The p38 MAP kinase inhibitory activity of compounds of this invention in vitro was determined by measuring the transfer of the γ-phosphate from γ-^33P-ATP by p-38 kinase to Myelin Basic Protein (MBP), using a minor modification of the method described in Ahn, et al., J. Biol. Chem. 266:4220-4227 (1991).
The phosphorylated form of the recombinant p38 MAP kinase was co-expressed with SEK-1 and MEKK in E. Coli (see, Khokhlatchev, et al., J Biol. Chem. 272:11057-11062 (1997)) and then purified by affinity chromatography using a Nickel column.
The phosphorylated p38 MAP kinase was diluted in kinase buffer (20 mM 3-(N-morpholino)propanesulfonic acid, pH 7.2, 25 mM β-glycerol phosphate, 5 mM ethylene glycol-bis(beta-aminoethyl ether)-N,N,N′,N′-tetraacetic acid, 1 mM sodium ortho-vanadate, 1 mM dithiothreitol, 40 mM magnesium chloride). Test compound dissolved in DMSO or only DMSO (control) was added and the samples were incubated for 10 min at 30° C. The kinase reaction was initiated by the addition of a substrate cocktail containing MBP and γ-^33P-ATP. […] The phosphorylated MBP was then separated from the residual γ-^33P-ATP using a phosphocellulose membrane (Millipore, Bedfrod, Mass.) and quantitated using a scintillation counter (Packard, Meriden, Conn.).

SMILES strings stand for the structures.

T1 sequence (Q16539 whole entry): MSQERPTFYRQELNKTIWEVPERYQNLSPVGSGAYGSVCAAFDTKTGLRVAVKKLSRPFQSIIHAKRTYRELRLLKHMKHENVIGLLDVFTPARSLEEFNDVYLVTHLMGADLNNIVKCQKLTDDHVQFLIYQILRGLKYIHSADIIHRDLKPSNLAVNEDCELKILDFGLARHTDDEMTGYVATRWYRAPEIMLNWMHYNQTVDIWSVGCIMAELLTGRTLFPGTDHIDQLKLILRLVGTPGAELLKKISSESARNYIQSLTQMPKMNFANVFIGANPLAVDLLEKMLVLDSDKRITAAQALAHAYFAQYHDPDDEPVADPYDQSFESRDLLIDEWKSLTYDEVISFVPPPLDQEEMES

For the compound `Oc1ccc(-c2n[nH]c3cc(Oc4ccccc4F)ccc23)cc1` [Compound 35, 4-[6-(2-Fluoro-phenoxy)-1H-indazol-3-yl]-phenol], the half-maximal inhibitory concentration (IC50) (usually the concentration at which inhibition is half-maximal) was 28 nM.
